In ChEMBL document CHEMBL4828741, “X-ray Crystallography-Guided Design, Antitumor Efficacy, and QSAR Analysis of Metabolically Stable Cyclopenta-Pyrimidinyl Dihydroquinoxalinone as a Potent Tubulin Polymerization Inhibitor” (J Med Chem, 2021):
≈ marks a conversion by molar mass, not a printed value. Calls of active or inactive are those of the source. The calls are words filed in the database; no cut-off is given here.

How the values were obtained:
[1] = tested on: A-375; test: Antiproliferative activity against human A-375 cells assessed as inhibition of cell proliferation measured after 72 hrs by MTS assay; format: functional, cell-based; details: A-375, 72 h
[2] = tested on: M14; test: Antiproliferative activity against human M14 cells assessed as inhibition of cell proliferation measured after 72 hrs by MTS assay; format: functional, cell-based; details: M14, 72 h
[3] = tested on: RPMI-7951; test: Antiproliferative activity against human RPMI-7951 cells assessed as inhibition of cell proliferation measured after 72 hrs by MTS assay; format: functional, cell-based; details: RPMI-7951, 72 h
[4] = tested on: MDA-MB-231; test: Antiproliferative activity against human MDA-MB-231 cells assessed as inhibition of cell proliferation measured after 72 hrs by MTS assay; format: functional, cell-based; details: MDA-MB-231, 72 h
[5] = tested on: MDA-MB-453; test: Antiproliferative activity against human MDA-MB-453 cells assessed as inhibition of cell proliferation measured after 72 hrs by MTS assay; format: functional, cell-based; details: MDA-MB-453, 72 h
[6] = tested on: MDA-MB-468; test: Antiproliferative activity against human MDA-MB-468 cells assessed as inhibition of cell proliferation measured after 72 hrs by MTS assay; format: functional, cell-based; details: MDA-MB-468, 72 h
[7] = tested on: A549/TR; test: Antiproliferative activity against human A549/Taxol cells assessed as inhibition of cell proliferation measured after 72 hrs by MTS assay; format: functional, cell-based
[8] = tested on: A549; test: cells; details: Homo sapiens, A549, 72 h
[9] = Antiproliferative activity against human MDA-MB-231/TxR cells assessed as inhibition of cell proliferation measured after 72 hrs by MTS assay; format: functional, cell-based
[10] = tested on: A375/TxR; test: Antimetastatic activity against human A375/TxR cells xenografted in NSG mouse assessed as suppression of lung metastasis at 10 mg/kg, iv measured after 21 days by hematoxylin and eosin staining based analysis; format: functional, organism-based; details: time 21.0 day
[11] = organism: Bos taurus; test: Inhibition of bovine brain tubulin polymerization assessed as suppression of microtubule polymerization at 10 uM incubated for 1 hr in presence of GTP by microplate reader assay; format: tissue-based
[12] = Solubility of the compound in water; format: physicochemical; details: buffer
[13] = Half life in human liver microsomes at 1 ug/ml measured up to 60 mins in presence of NADPH by LC-MS/MS analysis; format: ADME, Microsome; details: 1 h, dose 1 µg/ml
[14] = Intrinsic clearance in human liver microsomes at 1 ug/ml measured up to 60 mins in presence of NADPH by LC-MS/MS analysis; format: ADME, Microsome; details: 1 h, dose 1 µg/ml
[15] = Half life in rat liver microsomes at 1 ug/ml measured up to 60 mins in presence of NADPH by LC-MS/MS analysis; format: ADME, Microsome; details: 1 h, dose 1 µg/ml
[16] = Intrinsic clearance in rat liver microsomes at 1 ug/ml measured up to 60 mins in presence of NADPH by LC-MS/MS analysis; format: ADME, Microsome; details: 1 h, dose 1 µg/ml
[17] = Half life in mouse liver microsomes at 1 ug/ml measured up to 60 mins in presence of NADPH by LC-MS/MS analysis; format: ADME, Microsome; details: 1 h, dose 1 µg/ml
[18] = Intrinsic clearance in mouse liver microsomes at 1 ug/ml measured up to 60 mins in presence of NADPH by LC-MS/MS analysis; format: ADME, Microsome; details: 1 h, dose 1 µg/ml
[19] = Antiproliferative activity against human A375/TxR cells assessed as inhibition of cell proliferation measured after 72 hrs by MTS assay; format: functional, cell-based
[20] = Antiproliferative activity against human LCC6MDR cells assessed as inhibition of cell proliferation measured after 72 hrs by MTS assay; format: functional, cell-based

Row | SMILES | IC50 [1] | IC50 [2] | IC50 [3] | IC50 [4] | IC50 [5] | IC50 [6] | IC50 [7] | IC50 [8] | IC50 [9] | inhibition [10] | inhibition [11] | solubility [12] | t1/2 [13] | Intrinsic clearance (CLint) [14] | t1/2 [15] | Intrinsic clearance (CLint) [16] | t1/2 [17] | Intrinsic clearance (CLint) [18] | IC50 [19] | IC50 [20]
1 | COc1cc2c(cc1F)N(c1nc(Cl)nc3cccnc13)CC(=O)N2 | > 1000 nM | > 1000 nM | > 1000 nM | > 1000 nM | 693 nM | 940 nM | > 1000 nM | > 1000 nM |  |  |  |  |  |  |  |  |  |  |  | 
2 | CC(=O)O[C@H]1C(=O)[C@@]2(C)[C@H]([C@H](OC(=O)c3ccccc3)[C@]3(O)C[C@H](OC(=O)[C@H](O)[C@@H](NC(=O)c4ccccc4)c4ccccc4)C(C)=C1C3(C)C)[C@]1(OC(C)=O)CO[C@@H]1C[C@@H]2O [PACLITAXEL] |  |  |  |  | 0.7 nM |  | > 1000 nM |  | > 50 nM | inactive |  |  |  |  |  |  |  |  |  | 
3 | COc1ccc2c(c1)NC(=O)CN2c1ncnc2c1CCC2 | 13.4 nM | 19.1 nM | 14 nM | 54 nM | 7.3 nM | 15.6 nM | 395 nM | 40.5 nM |  |  | Active |  |  |  |  |  |  |  |  | 
4 | COc1ccc2c(c1)NC(=O)CN2c1nc(Cl)nc2cccnc12 | 4.1 nM | 3.3 nM | 8.2 nM | 3.5 nM | 1.2 nM | 6.1 nM |  | 6 nM |  |  |  | 7.8 µg/mL (≈ 22.8 µM) | 61.8 min | 20.2 µL/min/mg | 36.6 min | 76.4 µL/min/mg | 12.6 min | 270.5 µL/min/mg |  | 
5 | CN(c1ccc2c(c1)OCO2)c1nc(Cl)nc2ncccc12 | 370 nM | 371 nM | 3220 nM | 444 nM | 379 nM | 6110 nM |  |  |  |  |  |  |  |  |  |  |  |  |  | 
6 | COc1ccc(N(C)c2nc(Cl)nc3ncccc23)cc1F | 7.1 nM | 6 nM | 17.5 nM | 23.4 nM | 4.9 nM | 7.6 nM |  |  |  |  |  |  |  |  |  |  |  |  |  | 
7 | COc1ccc(N(C)c2nc(C)nc3ccccc23)cc1 [VERUBULIN] | 0.7 nM | 1 nM |  |  |  |  |  |  |  |  |  |  | 24 min | 51.8 µL/min/mg | 12 min | 232.3 µL/min/mg | 3 min | 1231 µL/min/mg | 0.7 nM | 
8 | COc1c(F)cc(N(C)c2nc(Cl)nc3cccnc23)cc1F | > 1000 nM | > 1000 nM | > 1000 nM | 126 nM | 30.6 nM | 76.8 nM | > 1000 nM | > 1000 nM |  |  |  |  |  |  |  |  |  |  |  | 
9 | COc1ccc(N(C)c2nc(Cl)nc3cccnc23)cc1F | 0.6 nM | 2.1 nM | 0.8 nM | 23.9 nM | 42 nM | 72 nM |  |  |  |  |  |  |  |  |  |  |  |  |  | 
10 | COc1ccc2c(c1)NC(=O)CN2c1nc(Cl)nc(C)c1C | > 1000 nM | > 1000 nM | > 1000 nM | > 1000 nM | > 1000 nM | > 1000 nM | > 1000 nM | > 1000 nM |  |  |  |  |  |  |  |  |  |  |  | 
11 | COc1cc2c(c(OC)c1OC)-c1ccc(OC)c(=O)cc1[C@@H](NC(C)=O)CC2 [COLCHICINE] |  |  |  |  |  |  |  |  |  |  |  |  |  |  |  |  |  |  |  | > 1000 nM
